Reference: ChEMBL document CHEMBL5113371, “Lipolytic enzymes inhibitors: A new way for antibacterial drugs discovery” (Eur J Med Chem, 2021)
≈ marks a conversion by molar mass, not a printed value.

Experiments:
[1] = system: Mycobacterium tuberculosis; assay: Inhibition of Mycobacterium tuberculosis Lipy assessed as pomegranate oil TAG lipolysis at 20 times molar excess of inhibitor concentration related to 1 mole of enzyme incubated for 30 mins by microtitre plate assay
RAW264.7 [2] = assay: Cytotoxicity against mouse RAW264.7 cells; type: functional
[3] = system: Mycobacterium tuberculosis; assay: Inhibition of Mycobacterium tuberculosis Lipy assessed as pomegranate oil TAG lipolysis at 4 times molar excess of inhibitor concentration related to 1 mole of enzyme incubated for 30 mins by microtitre plate assay
[4] = system: Mycobacterium tuberculosis; assay: Inhibition of Mycobacterium tuberculosis Lipy incubated for 30 mins by UV spectrophotometric analysis
[5] = system: Mycobacteroides abscessus; assay: Antibacterial activity against Mycobacterium abscessus CIP 104536T rough morphotype incubated for 1 to 14 days; type: functional; conditions: time 1-14 day
[6] = system: Mycobacteroides abscessus; assay: Antibacterial activity against Mycobacterium abscessus CIP 104536T smooth morphotype incubated for 1 to 14 days; type: functional; conditions: time 1-14 day
[7] = (§1) Antibacterial activity against Mycobacterium Mycobacterium abscessus CIP 104536T infected in mouse RAW264.7 cells assessed as […] incubated for 4 to 5 days; type: functional; conditions: Mycobacteroides abscessus, time 4-5 day
RAW264.7 [8] = assay: as §1; type: functional; conditions: Mycobacteroides abscessus, time 4-5 day
[9] = Inhibition of Mycobacterium tuberculosis Cut6
[10] = Antibacterial activity against Mycobacterium Mycobacterium abscessus CIP 104536T infected in mouse RAW264.7 cells assessed as bacterial viability at 30 uM incubated for 4 to 5 days relative to control; type: functional, Mycobacteroides abscessus; conditions: time 4-5 day
[11] = system: Mycobacterium tuberculosis; assay: Antibacterial activity against Mycobacterium tuberculosis incubated for 2 to 3 weeks; type: functional; conditions: time 2-3 weeks
Mycobacterium = assay: Antibacterial activity against Mycobacterium by REMA assay; type: functional
[12] = system: Mycobacterium tuberculosis; assay: Antibacterial activity against Mycobacterium tuberculosis; type: functional

SMILES	inhibition [1] [%]	CC50 (RAW264.7 [2]) [µM]	inhibition [3] [%]	I50 [4] [molar excess]	MIC50 [5] [µM]	MIC50 [6] [µM]	other results
O=c1oc(OCCOCc2ccccc2)nn1-c1ccccc1	92.2	> 100	89	0.61	–	–	–
CCCCCCCCCCCC[C@@H]1CC[P@@](=O)(OC)OC(C)=C1C(=O)OC	–	> 100	–	–	> 100	> 100	MIC50 [7]: 7.9 µM (≈ 3.18 µg/mL)
CCCCCCOc1nn(-c2ccc(Oc3ccccc3)cc2)c(=O)o1	77.2	> 100	38.7	2.9	–	–	–
CCCCCCCCCCCCCCCCO[P@]1(=O)OC[C@@H]2COC(=O)C2=C(C)O1	–	> 100	–	–	–	–	–
NCC[C@H](O)C(=O)N[C@@H]1C[C@H](N)[C@@H](O[C@H]2O[C@H](CN)[C@@H](O)[C@H](O)[C@H]2O)[C@H](O)[C@H]1O[C@H]1O[C@H](CO)[C@@H](O)[C@H](N)[C@H]1O [AMIKACIN]	–	–	–	–	7.4 (≈ 4.33 µg/mL)	3.9 (≈ 2.28 µg/mL)	–
CCCCCCCCCCCCCCCCC1=C(C(=O)OC)CCOP(=O)(OC)O1 (stereo unspecified)	–	–	–	–	6.9 (≈ 3.08 µg/mL)	60 (≈ 26.8 µg/mL)	MIC50 (RAW264.7 [8]): NE
CCCCCCCCCCC[C@@H](C[C@@H]1OC(=O)[C@H]1CCCCCC)OC(=O)[C@@H]1CSCN1C(C)=O	–	–	–	–	–	–	IC50 [9]: 0.2 µM
CC(C)COc1nn(-c2cccc(Oc3ccccc3)c2)c(=O)o1	49.4	–	37.4	3.9	–	–	–
CCCCCCOc1nn(-c2cccc(Oc3ccccc3)c2)c(=O)o1	76.5	–	39.9	3.3	–	–	–
CCCCCCCCCCCCCCCCO[P@]1(=O)OC[C@H]2COC(=O)C2=C(C)O1	–	> 100	–	–	–	–	–
CCCCCCCCCC[C@H]1CC[P@@](=O)(OC)OC(C)=C1C(=O)OC	–	> 100	–	–	> 100	> 100	MIC50 [7]: 65.3 µM (≈ 24.5 µg/mL)
CCCCCCCCOc1nn(-c2cccc(Oc3ccccc3)c2)c(=O)o1	86.6	–	83.2	0.71	–	–	–
CCCCCCCCCCOc1nn(-c2cccc(Oc3ccccc3)c2)c(=O)o1	94.2	–	91.5	0.67	–	–	–
CC(C)COc1nn(-c2ccc(Oc3ccccc3)cc2)c(=O)o1	41.6	> 100	33.8	> 40	53.2 (≈ 17.4 µg/mL)	33 (≈ 10.8 µg/mL)	Activity [10]: 59%; MIC50 [7]: < 30 µM
CCCCCCCCCCC[C@@H](C[C@@H]1OC(=O)[C@H]1CCCCCC)OC(=O)[C@@H]1CCCN1C(C)=O	–	–	–	–	–	–	IC50 [9]: 0.2 µM
C[C@@H](O)[C@H]1C(=O)N2C(C(=O)O)=C(SCCNC=N)C[C@H]12 [IMIPENEM ANHYDROUS]	–	–	–	–	29.9 (≈ 8.95 µg/mL)	11.3 (≈ 3.38 µg/mL)	MIC50 [7]: 28.3 µM (≈ 8.47 µg/mL)
CCCCCCCCCCC[C@@H](C[C@@H]1OC(=O)[C@H]1CCCCCC)OC(=O)[C@H]1CCCN1C=O	–	–	–	–	–	–	IC50 [9]: 0.2 µM
CCCCCC(CC)Oc1nn(-c2cccc(Oc3ccccc3)c2)c(=O)o1 (stereo unspecified)	94.8	–	89.6	0.73	–	–	–
CCCCCCCCCCC[C@@H](C[C@@H]1OC(=O)[C@H]1CCCCCC)OC(=O)[C@H](CC(C)C)NC=O [ORLISTAT]	87.6	–	26.8	7.1	–	–	IC50 [9]: 3.8 µM
CCCCCCCCCC[C@@H]1CC[P@@](=O)(OC)OC(C)=C1C(=O)OC	–	> 100	–	–	> 100	> 100	MIC50 [7]: 29.3 µM (≈ 11 µg/mL)

SMILES	inhibition [1] [%]	CC50 (RAW264.7 [2]) [µM]	inhibition [3] [%]	I50 [4] [molar excess]	MIC50 [5] [µM]	MIC50 [6] [µM]	other results
O=c1oc(OCCOCc2ccccc2)nn1-c1cccc(Oc2ccccc2)c1	90.2	–	88	0.72	–	–	–
COc1nn(-c2cccc(Oc3ccccc3)c2)c(=O)o1	85.9	–	63.6	2.4	–	–	MIC [11]: 50 µM (≈ 14.2 µg/mL)
CCCCC[C@H]1CC[P@@](=O)(OC)OC(C)=C1C(=O)OC	–	> 100	–	–	–	–	–
CCCCOc1nn(-c2cccc(Oc3ccccc3)c2)c(=O)o1	63.7	–	15.6	> 40	–	–	–
CCCCCCCCCCCCCCCCOP1(=O)OCCC(C(=O)OC)=C(C)O1 (stereo unspecified)	–	> 100	–	–	0.37 (≈ 0.165 µg/mL)	12.7 (≈ 5.67 µg/mL)	MIC (Mycobacterium): 2 µg/mL (≈ 4.48 µM); MIC50 (RAW264.7 [8]): NE
C=CCCCCCCC[C@H]1C(=O)O[C@@H]1CCCCCNC(=O)c1ccc(N(C)C)cc1	–	–	–	–	–	–	INH [12]: 1.6 µM
O=c1oc(OCCOCc2ccccc2)nn1-c1ccc(Oc2ccccc2)cc1	98.4	> 100	97	0.59	–	–	–
CCCCCCCCCCCCOc1nn(-c2cccc(Oc3ccccc3)c2)c(=O)o1	90.4	–	88.7	0.77	–	–	–
COc1nn(-c2ccc(Oc3ccccc3)cc2)c(=O)o1	79.4	–	60.8	0.93	> 200	88.2 (≈ 25.1 µg/mL)	MIC50 [7]: 75.2 µM (≈ 21.4 µg/mL)
CCOc1nn(-c2cccc(Oc3ccccc3)c2)c(=O)o1	53.8	–	21.7	6.5	–	–	–
CCCCCCCCCCC[C@@H](C[C@@H]1OC(=O)[C@H]1CCCCCC)OC(=O)[C@H]1CCCN1C(C)=O	–	–	–	–	–	–	IC50 [9]: 0.2 µM
CCCCCCCCCCC[C@@H](C[C@@H]1OC(=O)[C@H]1CCCCCC)OC(=O)[C@@H]1CCCN1C=O	–	–	–	–	–	–	IC50 [9]: 0.2 µM
CC(C)COc1nn(-c2ccccc2)c(=O)o1	47.9	> 100	31.6	9.2	–	–	–
CCCCCCCCCCC1=C(C(=O)OC)CCOP(=O)(OC)O1 (stereo unspecified)	–	–	–	–	13.9 (≈ 5.04 µg/mL)	85 (≈ 30.8 µg/mL)	MIC50 (RAW264.7 [8]): NE
CO[C@H]1/C=C/O[C@@]2(C)Oc3c(C)c(O)c4c(O)c(c(/C=N/N5CCN(C)CC5)c(O)c4c3C2=O)NC(=O)/C(C)=C\C=C\[C@H](C)[C@H](O)[C@@H](C)[C@@H](O)[C@@H](C)[C@H](OC(C)=O)[C@@H]1C [RIFAMPIN]	–	24	–	–	–	–	–
NNC(=O)c1ccncc1 [ISONIAZID]	–	> 150	–	–	–	–	–
COc1nn(-c2ccccc2)c(=O)o1	81.8	–	34.4	10.9	> 200	> 200	MIC50 [7]: 36.5 µM (≈ 7.01 µg/mL)
COCCOc1nn(-c2cccc(Oc3ccccc3)c2)c(=O)o1	93.7	–	92.4	0.69	–	–	–
CCCCCCCCCCCC[C@H]1CC[P@@](=O)(OC)OC(C)=C1C(=O)OC	–	> 20	–	–	> 100	> 100	MIC50 [7]: 2 µM (≈ 0.805 µg/mL)
CCCCCCOc1nn(-c2ccccc2)c(=O)o1	38.8	> 100	35	> 40	–	–	–
